This is an account of results in patent US20220340597A1, “HEXAHYDRO-1H-PYRAZINO[1,2-A]PYRAZINE COMPOUNDS FOR THE TREATMENT OF AUTOIMMUNE DISEASE” (Hoffmann-La Roche Inc., priority 2019, published 2022).

In brackets after ≈: the same amount, converted by molar mass.

In data set [1] the test system is Balb/c 3T3 mouse fibroblasts. Nature of the data set: 3T3 in vitro phototoxicity assay (Neutral Red uptake). The format is cell-based. Particulars: for Phototoxicity factor: Factor=IC50(-UV)/IC50(+UV), cut-off >5; for IC50: Mus musculus, BALB/c3T3, light or radiation study, with approx. 5 J/cm2 UVA light, Neutral Red uptake. From the text: 3T3 In Vitro Phototoxicity Assay
Phototoxicity is defined as a toxic response that is elicited after the first exposure of the skin to certain chemicals and subsequent exposure to light, or that is induced similarly by skin irradiation after systemic administration of a chemical substance. The assay used in this study is designed to detect the phototoxic potential of a chemical by using a simple in vitro cytotoxicity assay with Balb/c 3T3 mouse fibroblasts. The principle of this test is a comparison of the cytotoxicity of a chemical when tested with and without exposure to a non-toxic dose of UVA-light. Cytotoxicity is expressed as a dose dependent reduction of the growth rate of cells as determined by uptake of the vital dye Neutral Red one day after treatment.
A small amount of substance was weighed and formulated freshly in DMSO just before the start of the exposure of the cells. This stock solution or appropriate dilutions with DMSO were added to the cell suspensions to obtain the required final concentrations. All solutions were generally prepared in Eppendorf caps and discarded after use.
Chlorpromazine (HCL) (Sigma, Batch/Lot No.: 120M1328V), test concentration: 300 μg/mL, Solvent: PBS/3% DMSO
For this study the Neutral Red uptake (NRU) assay of Borenfreund and Puemer (Borenfreund, E, Puemer J A. Toxicity determined in vitro by morphological alterations and Neutral Red absorption. Toxicology Lett. 1985; 24:119-124) modified according to INVITTOX protocol No 78 (ERGATT/FRAME data bank of in vitro techniques in toxicology. INVITTOX PROTOCOL No 78. 3T3 NRU Phototoxicity Assay. March 1994) has been adapted to examine a possible phototoxic potential of the test item. This assay is based on the active uptake of the Neutral Red dye into the lysosomes of cultured murine fibroblasts. Because lysosomal membranes are known to be a site of action of many phototoxic compounds, this assay can provide a measure of potential for phototoxic injury.
A murine fibroblasts clone A 31 (ATCC no. CCL 163—passage No. 108) were cultured in 175 cm^2 tissue culture grade flasks, containing sDMEM (Dulbecco's […] Essential Medium, supplemented with 10% fetal calf serum, 2 mM L-glutamine, 100 units/ml Penicillin and 100 μg/ml streptomycin) at 37° C. in a humidified atmosphere of 6% CO2. Before cells approach confluence they were removed from flasks by trypsinisation. Prior to use in an assay, the cells were transferred to 96-well microtiter plates at a concentration of 1×10^4 cells/well in 100 μl volumes of sDMEM and allowed to attach for 24 h.
For incubation with murine fibroblasts, the test item was diluted in PBS/3% DMSO (detailed concentrations see in results).
Culture medium (Dulbecco's Modified Eagle Medium (DMEM), GlutaMAX (Gibco Ref 21885-025), 10% Fetal Bovine Serum (FBS) (Gibco Ref 10270-106), 100 IU/ml Penicillin and 100 μg/ml Streptomycin (Gibco Ref 15140-122)) was removed from the wells and murine fibroblasts were washed with PBS. Afterwards 100 μL of PBS/3% DMSO containing the test item was added and target cells were incubated for 1 h at 37° C. with 6% CO2.
For each test item the microtiter plates were prepared according to Table 4. “UVA plates” were exposed to approx. 5 J/cm^2 UVA light, the “Dark plates” were kept in the dark and served as cytotoxicity control. Plates with chlorpromazine hydrochloride served as positive control. UV flux was measured with a UV-meter (Dr. Gröbel RM21).
Following UV irradiation, the test item was removed from the wells (one washing step with PBS) and replaced with sDMEM. Target cells were then incubated overnight at 37° C. in 6% CO2.
Each plate contained wells with cells and solvent but without test item which were either not incubated with Neutral Red solution (0% standard—S1) or were stained with Neutral Red (100% standard—S2) for calculation of the standard cell viability curve. Wells labeled with U01-U08 contained the different test item concentrations. […]

In data set [2] the test system is TLR7 agonist-induced lupus-like disease. Nature of the data set: R848 agonist induced mouse lupus nephritis disease model. The format is in vivo, BALB/c mice. To be noted: 10 mg/kg orally once daily. From the text:
Agonist Induced Mouse Lupus Nephritis Disease Model To assess compound efficacy in vivo against lupus nephritis, we utilized a murine model of TLR7 agonist-induced lupus-like disease, in which TLR7 activation leads to the development of systemic autoimmune symptoms with elevated levels of autoantibodies to double-stranded DNA (anti-dsDNA), inflammatory cytokines such as IP10, as well as multiple organs involvement especially in kidney and spleen. BALB/c mice were purchased from Vital River Laboratories Co., Ltd., Beijing, China. All mice were 7 to 8-week old female. To induce disease, animals were topically treated on the right ear with 100 μg of Resiquimod (R848) solved in 20 μL of acetone for three times per week. Compound or vehicle treatment was administrated orally once daily and 30 minutes prior to the epicutanenous R848 treatment if they were on the same day. Blood samples were collected once weekly to gauge the level of autoantibody against double stranded DNA and multiple cytokines in serum. The total anti-dsDNA Immunoglobulins in serum were measured according to the manufacturer's instruction with a commercially available ELISA assay (Cat #5110, Alpha Diagnostic Inti Inc.). Cytokine levels in serum were measured with a ProcartaPlex immunoassay Kit (Cat #[…], Thermo Fisher). Specifically, 10 μL of premixed magnetic capture beads were added to a DropArray DA-bead plate (Cat #969-CC-BD-05, Curiox). After washing, 10 μL of diluted sera (1:5) was incubated on the DA-bead plate overnight at 4° c. After washing for three times, 5 μL of premixed detection antibody was added to the plate with an incubation for 60 minutes at room temperature. After washing, 10 μL of Streptavidin-PE was added with an incubation for 30 minutes at room temperature. The beads were then re-suspended in 55 μL Reading Buffer. Samples were analyzed with a Luminex 200 (Millipore). Urine samples were collected once weekly with the animals housed in metabolic cages for 24 hours, and were subjected to the measurements of urinary albumin (UALB), urinary creatinine (UCR) and urinary total protein (UTP) with a Roche Cobas 6000 Chemistry Analyzer (Roche Diagnostics, Mannheim, Germany). Tubular protein scores of 0 to 3 were based on the percentage of tubules containing proteinaceous fluid. Grade 1: <25% of tubules affected; Grade 2: 25 to 50% of tubules affected; Grade 3: >50% of tubules affected. Spleens were harvested and weighed upon study termination to evaluate splenomegaly.

Take `CO[C@@H]1CN(c2ccc(CCN3CCN4[C@@H](C3)CN(c3ccc(C#N)n5nccc35)C[C@H]4C)cc2)C[C@H]1N` [Example 68, 4-[(4R,9aS)-8-[2-[4-[(3R,4R)-3-amino-4-methoxy-pyrrolidin-1-yl]phenyl]ethyl]-4-methyl-3,4,6,7,9,9a-hexahydro-1H-pyrazino[1,2-a]pyrazin-2-yl]pyrazolo[1,5-a]pyridine-7-carbonitrile]: in data set [1], the Phototoxicity factor is 1.53 and the IC50 (usually the concentration needed to halve the response being measured) was found to be 65.9 µg/mL (≈ 128 µM).

For the compound `CO[C@@H]1CN(c2ccc(CCN3CCN4[C@@H](C3)CN(c3ccc(C#N)c5ncccc35)C[C@H]4C)cn2)C[C@H]1N` [Example 12, 5-[(4R,9aS)-8-[2-[6-[(3R,4R)-3-amino-4-methoxy-pyrrolidin-1-yl]-3-pyridyl]ethyl]-4-methyl-3,4,6,7,9,9a-hexahydro-1H-pyrazino[1,2-a]pyrazin-2-yl]quinoline-8-carbonitrile], the Phototoxicity factor in data set [1] is more than 2.53.

In data set [1], `C[C@@H]1CN(c2ccc(C#N)c3ncccc23)C[C@@H]2CN(Cc3ccc4c(c3)CNCC4)CCN21` [Example 5, 5-[(4R,9aS)-4-methyl-8-(1,2,3,4-tetrahydroisoquinolin-7-ylmethyl)-3,4,6,7,9,9a-hexahydro-1H-pyrazino[1,2-a]pyrazin-2-yl]quinoline-8-carbonitrile] gave a Phototoxicity factor of more than 1.39 and an IC50 of 23.3 µg/mL (≈ 51.5 µM).

In the case of `[2H]c1ccc2c(N3C[C@@H]4CN(c5ccc([C@@H]6CNCCO6)cc5)CCN4[C@@H](C)C3)ccc(C#N)c2n1` [Example 106, 5-[(4S,9aS)-4-methyl-8-[4-[(2R)-morpholin-2-yl]phenyl]-3,4,6,7,9,9a-hexahydro-1H-pyrazino[1,2-a]pyrazin-2-yl]-2-deuterio-quinoline-8-carbonitrile], the “production of Interferon gamma-induced protein 10 (IP-10) in serum” value in data set [2] (after 1 week of treatment (FIG. 3A)) is listed as “inhibited”. In addition, the “level of anti-dsDNA autoantibodies in serum” value in data set [2] (after 2 weeks of treatment (FIG. 3B)) is reported as “significantly reduces”. Also, in data set [2] (after 5 weeks of treatment (FIG. 3C)), the “kidney damage / R848-induced proteinuria (UACR)” value is listed as “no R848-induced proteinuria increase”. Moreover, the “splenomegaly / spleen weight” value in data set [2] (after 6 weeks of treatment (FIG. 3D)) is given as “prevented splenomegaly”. In data set [1], this compound came in with a Phototoxicity factor of more than 1.67 and an IC50 of 60.2 µg/mL (≈ 128 µM).

Consider `[2H]c1ccc2c(N3C[C@@H]4CN(CCc5ccc(N6C[C@H]7NCCO[C@@H]7C6)nc5)CCN4[C@H](C)C3)ccc(C#N)c2n1` [Example 77, 5-[(4R,9aS)-8-[2-[6-[(4aR,7aR)-3,4,4a,5,7,7a-hexahydro-2H-pyrrolo[3,4-b][1,4]oxazin-6-yl]-3-pyridyl]ethyl]-4-methyl-3,4,6,7,9,9a-hexahydro-1H-pyrazino[1,2-a]pyrazin-2-yl]-2-deuterio-quinoline-8-carbonitrile], for which, in data set [1], the Phototoxicity factor is more than 1.9 and the IC50 was found to be 52.5 µg/mL (≈ 97.3 µM).

In data set [1], `C[C@@H]1CN(c2ccc(C#N)c3ncccc23)C[C@@H]2CN(c3cccc4c3CNC4)CCN21` [Example 9, 5-[(4R,9aS)-8-isoindolin-4-yl-4-methyl-3,4,6,7,9,9a-hexahydro-1H-pyrazino[1,2-a]pyrazin-2-yl]quinoline-8-carbonitrile] registered a Phototoxicity factor of more than 3.9 and an IC50 of 26.3 µg/mL (≈ 61.9 µM).
